We go through 41 compounds from ChEMBL document CHEMBL3039007, “Structure-based identification of OATP1B1/3 inhibitors” (Mol Pharmacol, 2013).

In data set [1] the target is T1, Solute carrier organic anion transporter family member 1B1 (Homo sapiens, UniProt Q9Y6L6).
T1 sequence (Q9Y6L6 whole entry): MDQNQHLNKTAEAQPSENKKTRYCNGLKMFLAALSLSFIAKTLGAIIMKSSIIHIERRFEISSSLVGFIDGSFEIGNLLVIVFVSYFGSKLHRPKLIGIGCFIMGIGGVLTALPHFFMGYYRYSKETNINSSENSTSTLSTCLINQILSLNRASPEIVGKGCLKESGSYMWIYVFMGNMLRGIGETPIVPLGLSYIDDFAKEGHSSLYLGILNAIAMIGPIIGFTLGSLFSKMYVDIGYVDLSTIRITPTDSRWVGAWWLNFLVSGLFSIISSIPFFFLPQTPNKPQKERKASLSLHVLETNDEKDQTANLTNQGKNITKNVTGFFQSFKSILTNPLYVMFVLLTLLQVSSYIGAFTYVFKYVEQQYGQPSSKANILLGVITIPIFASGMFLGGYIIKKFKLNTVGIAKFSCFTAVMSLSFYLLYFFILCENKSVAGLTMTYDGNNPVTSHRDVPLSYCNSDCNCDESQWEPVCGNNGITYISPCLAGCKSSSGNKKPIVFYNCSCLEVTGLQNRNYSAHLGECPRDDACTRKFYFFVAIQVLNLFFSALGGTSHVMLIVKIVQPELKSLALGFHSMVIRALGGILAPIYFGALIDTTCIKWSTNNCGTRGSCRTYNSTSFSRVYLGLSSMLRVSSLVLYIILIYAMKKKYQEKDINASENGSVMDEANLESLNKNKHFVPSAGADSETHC
The settings on record: chinese hamster, cho, 10 µM.

Data set [2] concerns the target T2, Solute carrier organic anion transporter family member 1B3 (Homo sapiens, UniProt Q9NPD5).
T2 sequence (Q9NPD5 whole entry): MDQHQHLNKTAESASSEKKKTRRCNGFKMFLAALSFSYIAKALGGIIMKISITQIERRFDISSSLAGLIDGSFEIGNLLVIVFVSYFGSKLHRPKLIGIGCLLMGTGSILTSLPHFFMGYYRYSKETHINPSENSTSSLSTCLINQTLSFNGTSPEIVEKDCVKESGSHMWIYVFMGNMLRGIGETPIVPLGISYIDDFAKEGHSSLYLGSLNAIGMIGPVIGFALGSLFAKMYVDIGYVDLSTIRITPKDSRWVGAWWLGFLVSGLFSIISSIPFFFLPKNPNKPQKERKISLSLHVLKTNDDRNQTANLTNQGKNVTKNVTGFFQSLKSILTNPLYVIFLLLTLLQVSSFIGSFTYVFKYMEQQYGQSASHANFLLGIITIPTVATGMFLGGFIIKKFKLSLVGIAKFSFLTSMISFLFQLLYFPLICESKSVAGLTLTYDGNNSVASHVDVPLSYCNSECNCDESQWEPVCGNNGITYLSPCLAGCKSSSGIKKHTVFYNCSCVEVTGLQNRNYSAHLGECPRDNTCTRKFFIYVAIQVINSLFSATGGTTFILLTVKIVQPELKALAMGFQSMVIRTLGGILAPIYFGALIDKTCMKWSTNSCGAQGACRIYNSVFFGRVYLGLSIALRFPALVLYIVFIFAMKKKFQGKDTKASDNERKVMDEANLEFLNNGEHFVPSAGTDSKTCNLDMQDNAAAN
The following applies: chinese hamster, cho, 10 µM.

What is called residual activity is the signal under treatment as a percentage of the control signal. In the case of `O=C1NC(=O)C(=O)C(=O)N1` [ALLOXAN], the values for the residual activity in data set [1] and in data set [2] were 118.2% and 108.5%, respectively.
In the same order, the values of `CN(C)CCc1c[nH]c2ccc(CS(=O)(=O)N3CCCC3)cc12` [ALMOTRIPTAN] are 95.85% and 94.33%.
The matching figures for `O=C1c2c(O)cccc2C([C@@H]2O[C@H](CO)[C@@H](O)[C@H](O)[C@H]2O)c2cc(CO)cc(O)c21` (some centres not stated) [ALOIN]: 48.46% and 66.8%.
In the same order, the values of `C/C1=C\CC/C(C)=C/CC(C)(C)/C=C/C1` [ALPHA-HUMULONE] are 112.4% and 109.1%.
For `C=CCc1ccccc1OCC(O)CNC(C)C` (configuration not stated) [ALPRENOLOL], the residual activity in data set [1] turned out to be 89.01%; in data set [2], 120.6%.
In the same order, the values of `C=CCSCC1Nc2cc(Cl)c(S(N)(=O)=O)cc2S(=O)(=O)N1` (configuration not stated) [ALTHIAZIDE] are 107.1% and 95.11%.
In the same order, the values of `CCN(CCCc1ccccc1)CCCc1ccccc1.O=C(O)CC(O)(CC(=O)O)C(=O)O` [ALVERINE CITRATE] are 48.34% and 74.4%.
For the compound `COc1c2c(cc3c1OCO3)[C@]13C=C[C@H](OC)C[C@H]1N(C2)C[C@@H]3O` [AMBELLINE], the residual activity was determined as 91.95% in data set [1] and 88.47% in data set [2].
The matching figures for `CC(=O)OCC(=O)[C@@]12OC3(CCCC3)O[C@@H]1C[C@H]1[C@@H]3CCC4=CC(=O)C=C[C@]4(C)[C@@]3(F)[C@@H](O)C[C@@]12C` [AMCINONIDE]: 35.76% and 56.58%.
The matching figures for `Cl.N=C(N)NC(=O)c1nc(Cl)c(N)nc1N.O.O` [AMILORIDE HYDROCHLORIDE]: 51.46% and 65.11%.
In the same order, the values of `Nc1c2ccccc2nc2ccccc12` [AMINACRINE] are 54.19% and 80.82%.
In the case of `Nc1ccc(C(=O)O)cc1` [AMINOBENZOIC ACID], the residual activity in data set [1] came to 85.02%; in data set [2] it was 88.18%.
In the same order, the values of `CN1[C@@H]2CC[C@H]1C[C@@H](OC(c1ccccc1)c1ccccc1N)C2` (some centres not stated) [AMINOBENZTROPINE] are 75.33% and 77.23%.
In the same order, the values of `CCC1(c2ccc(N)cc2)CCC(=O)NC1=O` (configuration not stated) [AMINOGLUTETHIMIDE] are 52.33% and 77%.
Regarding `Nc1ccc(C(=O)NCC(=O)O)cc1` [AMINOHIPPURIC ACID], the residual activity in data set [1] stood at 82.43%; in data set [2], 94.72%.
In the same order, the values of `Cl.NCC(=O)CCC(=O)O` [AMINOLEVULINIC ACID HYDROCHLORIDE] are 84.34% and 89.23%.
In the same order, the values of `Nc1nc(N)c2nc(CNc3ccc(C(=O)N[C@@H](CCC(=O)O)C(=O)O)cc3)cnc2n1` [AMINOPTERIN] are 89.56% and 124.5%.
The matching figures for `Nc1ccc(C(=O)[O-])c(O)c1.O.O.[Na+]` [AMINOSALICYLATE SODIUM]: 75.75% and 88.86%.
Turning to `Nc1nccs1` [AMINOTHIAZOLE], the residual activity in data set [1] worked out at 92.13%; in data set [2], 76.59%.
The matching figures for `CN(C)CCCO[C@@H]1[C@H]2OC(C)(C)O[C@H]2O[C@@H]1[C@H](O)CO` [AMIPRILOSE]: 91.07% and 95.1%.
In the same order, the values of `Cc1ccc(/N=C/N(C)/C=N/c2ccc(C)cc2C)c(C)c1` [AMITRAZ] are 108.2% and 87.86%.
In the same order, the values of `CN(C)CCC=C1c2ccccc2CCc2ccccc21.Cl` [AMITRIPTYLINE HYDROCHLORIDE] are 53.22% and 80.45%.
In the case of `Clc1ccc2c(c1)C(N1CCNCC1)=Nc1ccccc1O2` [AMOXAPINE], the figures for the residual activity in data set [1] and in data set [2] were 115.8% and 101.5%, respectively.
The matching figures for `C[C@@H]1[C@H](O)[C@@H](C)/C=C/C=C/C=C/C=C/C=C/C=C/C=C/[C@H](O[C@@H]2O[C@H](C)[C@@H](O)[C@H](N)[C@@H]2O)C[C@@H]2O[C@](O)(C[C@@H](O)C[C@@H](O)[C@H](O)CC[C@@H](O)C[C@@H](O)CC(=O)O[C@H]1C)C[C@H](O)[C@H]2C(=O)O` [AMPHOTERICIN B]: 89.01% and 99.53%.
The matching figures for `CC1(C)S[C@@H]2[C@H](NC(=O)[C@H](N)c3ccccc3)C(=O)N2[C@H]1C(=O)[O-].[Na+]` [AMPICILLIN SODIUM]: 76.76% and 88.9%.
The matching figures for `CCCc1ncc(C[n+]2ccccc2C)c(N)n1` [AMPROLIUM ION]: 67.38% and 78.02%.
`N#C[C@H](O[C@@H]1O[C@H](CO[C@@H]2O[C@H](CO)[C@@H](O)[C@H](O)[C@H]2O)[C@@H](O)[C@H](O)[C@H]1O)c1ccccc1` [AMYGDALIN]: the residual activity in data set [1] amounted to 118.1%; in data set [2], 103.6%.
In the same order, the values of `CN1CCCCC1c1ccc(-c2cccnc2)nc1.Cl` (configuration not stated) [ANABASAMINE HYDROCHLORIDE] are 100% and 108.2%.
In the same order, the values of `Cl.c1cncc([C@@H]2CCCCN2)c1` [ANABASINE HYDROCHLORIDE] are 83.96% and 91.54%.
The matching figures for `Cl.N=c1ccn2c(n1)O[C@H]1[C@H](O)[C@@H](CO)O[C@H]12` [ANCITABINE HYDROCHLORIDE]: 68.78% and 66.03%.
As for `C=C1[C@@H]([C@@]2(C)C=CC(=O)C(C)(C)[C@@H]2CC(=O)OC)CC[C@@]2(C)[C@H](c3ccoc3)OC(=O)[C@H]3O[C@]132` [ANDIROBIN], the residual activity was 103.8% in data set [1] and 98.71% in data set [2].
The matching figures for `C=C1CC[C@@H]2[C@](C)(CO)[C@H](O)CC[C@@]2(C)[C@@H]1C/C=C1/C(=O)OC[C@H]1O` [ANDROGRAPHOLIDE]: 80.16% and 84.72%.
In the same order, the values of `C[C@]12C=CC(=O)C=C1CC[C@@H]1[C@@H]2CC[C@]2(C)C(=O)CC[C@@H]12` [ANDROSTENEDONE] are 128.1% and 104%.
The matching figures for `CC(=O)O[C@@H]1CC[C@@]2(C)[C@@H](CC[C@@H]3[C@@H]2CC[C@]2(C)C(=O)CC[C@@H]32)C1` [ANDROSTERONE ACETATE]: 76.88% and 100.8%.
With `C/C=C/c1ccc(OC)cc1` [ANETHOLE], the residual activity is 89.5% in data set [1] and 124.1% in data set [2].
Take `COc1ccc([C@@H](C)C(=O)c2ccc(O)cc2O)cc1` [ANGOLENSIN (R)]: the residual activity in data set [1] worked out at 114.1%; in data set [2], 126.8%.
The matching figures for `COc1ccc2c(=O)c(CC(=O)O)coc2c1` [ANHYDROBRAZILIC ACID]: 56.09% and 76.12%.
In the same order, the values of `COc1ccc(C2C(=O)c3ccccc3C2=O)cc1` [ANISINDIONE] are 74.63% and 75.63%.
In the same order, the values of `COc1ccc(C[C@H]2NC[C@H](O)[C@H]2OC(C)=O)cc1` [ANISOMYCIN] are 81.33% and 81.11%.
`O=C(O)c1c2ccccc2cc2ccccc12` [ANTHRACENE-9-CARBOXYLIC ACID]: the residual activity was 95.94% in data set [1] and 87.88% in data set [2].
The matching figures for `O=C1c2c(O)cccc2Cc2cccc(O)c21` [ANTHRALIN]: 86.38% and 90.63%.
